{"source": "patent US20250228759A1", "about": "“ANTI-AGING COSMETIC COMPOSITIONS COMPRISING XANTHOMMATIN” (SEASPIRE, INC., priority 2021, published 2025)", "system": "NativeSkin® human skin tissues", "experiment": "Gene expression assay (Genemarkers Standard Skin Panel, qPCR) in ex vivo skin", "assay_type": "cell-based", "conditions": "24 hrs, N=4", "method": "This study was conducted to determine how different concentrations (0.316 μM-10.0 mM) of xanthommatin influences gene expression in ex vivo NativeSkin® human skin tissues (purchased from Genoskin). NativeSkin® human skin models hold normal skin barrier function, a mature stratum corneum, a functional basal layer and all cell types and skin appendages of in vivo human skin.\nGene expression was assessed using Genemarkers Standard Skin Panel, a qPCR-based gene expression panel which contains 107 target genes potentially relevant in skin biology and 5 endogenous control genes. Gene expression was assessed 24 hrs following application of the test material to the skin tissues.\nFormulation design. A gel containing either 0.1% or 0.4% (Table 1) by mass percentage of ammonium xanthommatin (Xa) was prepared. Phase A was initiated by adding 0.3 wt % of carbomer into the water without stirring. Next, the solution was heated to 75° C. with mixing to allow the carbomer to disperse throughout the mixture before ammonium xanthommatin was slowly added and allowed to mix for full dissolution. In a separate reaction vessel, Phase B was created with glycerin (3.5%) and phenoxyethanol (0.95%) and mixed well. Phase B was then added to Phase A. The final phase (Phase C), containing 4% deionized water and 0.4% sodium hydroxide, was added to the main phase for neutralization. The gel was then cooled to room temperature.\nTissue equilibration. Native tissues (Genoskin) were equilibrated overnight at 37° C. with 5% CO2 and ˜95% relative humidity. The following day, the equilibrium medium was removed from each well and replaced with 1.0 mL of maintenance medium.\nTreatment Media. Tissues were obtained from the abdomen of a person with Fitzpatrick type 2-3 skin. Genoskin facilities mounted 11 mm biopsies into Nativeskin tissue inserts which were used for genetic analysis 5 days later. N=4 biological replicates per treatment group. For WST-8 (−) control tissue (N=2), 10 μL of Triton X-100 (1%) was applied to the surface of the tissue; two untreated tissues served as the WST-8 control.\nTissue and medium collections. A 2 mm biopsy punch was taken from the center for the WST-8 assay. Remaining tissues were placed in a tube containing RNAlater preservative solutions. Tissues were incubated for 1-2 hrs until RNA was isolated. RNA was isolated using an RNeasy Mini kit (Qiagen) following the manufacturer's instructions. Each sample was vacuum concentrated to at least 200 ng/μL to provide sufficient amount of RNA for cDNA synthesis. RNA concentration and purity were determined using a Nanodrop 2000 spectrophotometer.\ncDNA was generated using a High Capacity cDNA Synthesis Kit (Applied Biosystems) and was generated from 2000 ng RNA per sample for OpenArray processing. qPCR data quality and statistical analysis was assessed and performed on the raw data files using ThermoFisher Connect Software (Life Technologies). Statistical analysis was performed using the relative quantitation (RQ) method, where the Cq value of the target gene is normalized to the Cq value of an endogenous control gene (selected from one of GAPDH, GUSB, HPRT1, PPIA, and UBC) to generate the delta Cq values, which were used to normalize variability between the samples.\nStatistical analysis. Unpaired t-tests were carried out using the ThermoFisher Connect software."}
{"molecule": "NC(CC(=O)c1cccc2oc3cc(=O)c4[nH]c(C(=O)O)cc(=O)c4c-3nc12)C(=O)O", "note": "(stereo not drawn) [ammonium xanthommatin]", "values": [{"measurement": "HAS2 (Hyaluronan synthase 2) gene expression, % Change", "setting": "3.16 mM (0.1%) dose group", "result": 74, "unit": "%"}, {"measurement": "HAS2 (Hyaluronan synthase 2) gene expression, FC (linear fold change)", "setting": "3.16 mM (0.1%) dose group", "result": 1.74}, {"measurement": "HAS2 (Hyaluronan synthase 2) gene expression, Rq", "setting": "3.16 mM (0.1%) dose group", "result": 1.74}, {"measurement": "COL1A1 (collagen) gene expression, % Change", "setting": "10 mM (0.4%) dose group", "result": 153, "unit": "%"}, {"measurement": "COL1A1 (collagen) gene expression, FC (linear fold change)", "setting": "10 mM (0.4%) dose group", "result": 2.53}, {"measurement": "COL1A1 (collagen) gene expression, Rq", "setting": "10 mM (0.4%) dose group", "result": 2.525}, {"measurement": "COL3A1 (collagen) gene expression, % Change", "setting": "10 mM (0.4%) dose group", "result": 137, "unit": "%"}, {"measurement": "COL3A1 (collagen) gene expression, FC (linear fold change)", "setting": "10 mM (0.4%) dose group", "result": 2.37}, {"measurement": "COL3A1 (collagen) gene expression, Rq", "setting": "10 mM (0.4%) dose group", "result": 2.37}, {"measurement": "FOXO3 (subclass of the forkhead family of transcription factors) gene expression, % Change", "setting": "10 mM (0.4%) dose group", "result": 114, "unit": "%"}, {"measurement": "FOXO3 (subclass of the forkhead family of transcription factors) gene expression, FC (linear fold change)", "setting": "10 mM (0.4%) dose group", "result": 2.14}, {"measurement": "FOXO3 (subclass of the forkhead family of transcription factors) gene expression, Rq", "setting": "10 mM (0.4%) dose group", "result": 2.142}, {"measurement": "HSPG2 (Heparan Sulfate Proteoglycan 2) gene expression, % Change", "setting": "10 mM (0.4%) dose group", "result": 48, "unit": "%"}, {"measurement": "HSPG2 (Heparan Sulfate Proteoglycan 2) gene expression, FC (linear fold change)", "setting": "10 mM (0.4%) dose group", "result": 1.48}, {"measurement": "HSPG2 (Heparan Sulfate Proteoglycan 2) gene expression, Rq", "setting": "10 mM (0.4%) dose group", "result": 1.477}, {"measurement": "IGF1R (insulin-like growth factor 1) gene expression, % Change", "setting": "10 mM (0.4%) dose group", "result": 26, "unit": "%"}, {"measurement": "IGF1R (insulin-like growth factor 1) gene expression, FC (linear fold change)", "setting": "10 mM (0.4%) dose group", "result": 1.26}, {"measurement": "IGF1R (insulin-like growth factor 1) gene expression, Rq", "setting": "10 mM (0.4%) dose group", "result": 1.257}, {"measurement": "ITGB4 (Integrin alpha-6/beta-4 is a receptor for laminin) gene expression, % Change", "setting": "10 mM (0.4%) dose group", "result": 58, "unit": "%"}, {"measurement": "ITGB4 (Integrin alpha-6/beta-4 is a receptor for laminin) gene expression, FC (linear fold change)", "setting": "10 mM (0.4%) dose group", "result": 1.58}, {"measurement": "ITGB4 (Integrin alpha-6/beta-4 is a receptor for laminin) gene expression, Rq", "setting": "10 mM (0.4%) dose group", "result": 1.582}, {"measurement": "KRT14 (keratin 14) gene expression, % Change", "setting": "10 mM (0.4%) dose group", "result": 72, "unit": "%"}, {"measurement": "KRT14 (keratin 14) gene expression, FC (linear fold change)", "setting": "10 mM (0.4%) dose group", "result": 1.72}, {"measurement": "KRT14 (keratin 14) gene expression, Rq", "setting": "10 mM (0.4%) dose group", "result": 1.721}, {"measurement": "MFN2 (mitofusin 2) gene expression, % Change", "setting": "10 mM (0.4%) dose group", "result": 45, "unit": "%"}, {"measurement": "MFN2 (mitofusin 2) gene expression, FC (linear fold change)", "setting": "10 mM (0.4%) dose group", "result": 1.45}, {"measurement": "MFN2 (mitofusin 2) gene expression, Rq", "setting": "10 mM (0.4%) dose group", "result": 1.447}, {"measurement": "POLG1/MDP1 (DNA Polymerase Gamma) gene expression, % Change", "setting": "10 mM (0.4%) dose group", "result": 71, "unit": "%"}, {"measurement": "POLG1/MDP1 (DNA Polymerase Gamma) gene expression, FC (linear fold change)", "setting": "10 mM (0.4%) dose group", "result": 1.71}, {"measurement": "POLG1/MDP1 (DNA Polymerase Gamma) gene expression, Rq", "setting": "10 mM (0.4%) dose group", "result": 1.713}, {"measurement": "ST14 (Suppressor of tumorigenicity 14 protein) gene expression, % Change", "setting": "10 mM (0.4%) dose group", "result": 39, "unit": "%"}, {"measurement": "ST14 (Suppressor of tumorigenicity 14 protein) gene expression, FC (linear fold change)", "setting": "10 mM (0.4%) dose group", "result": 1.39}, {"measurement": "ST14 (Suppressor of tumorigenicity 14 protein) gene expression, Rq", "setting": "10 mM (0.4%) dose group", "result": 1.385}]}
